Assay [1] concerns Staphylococcus aureus. The assay is described as follows: Antibacterial activity against Staphylococcus aureus. Type of assay: functional, organism-based.
For assay [2], the system named is A549. The assay is described as follows: Cytotoxicity against human A549 cells assessed as cell growth inhibition after 72 hrs by MTT assay. It counts as functional, cell-based. Conditions: A549, 72 h.
The subject of assay [3] is HeLa. As to the kind of experiment: Cytotoxicity against human HeLa cells assessed as cell growth inhibition after 72 hrs by MTT assay. Type of assay: functional, cell-based. (In general: Tetrazolium assays rely on reduction of a dye to a coloured formazan, in cell work by metabolically active cells.)
The test system of assay [4] is HepG2. As to the kind of experiment: Cytotoxicity against human HepG2 cells assessed as cell growth inhibition after 72 hrs by MTT assay. To be noted: HepG2, 72 h. Type of assay: functional, cell-based.

The structures appear in SMILES notation. pIC50: −log10 of the molar value. Activity calls are given as the source filed them. The calls are words filed in the database; no cut-off is given here.

For orientation: pIC50 means the negative decadic logarithm of the IC50, by convention in mol/L. For the compound `Cc1ccc(/C=C/[C@@]2(C)CC[C@](C)(/C=C/C3=C[C@H](O)[C@](C)(O)C[C@@H]3O)O2)cc1`, the outcome in assay [1] was inactive. The pIC50 in assay [2] is 4.38; in assay [3] it was 5.03; in assay [4], 4.51.

`Cc1ccc(/C=C/[C@]2(C)CC[C@](C)(/C=C/C3=C[C@H](O)[C@](C)(O)C[C@@H]3O)O2)cc1`: in assay [1], the result was inactive. The pIC50 in assay [2] is less than 4.30; in assay [3], 4.34; in assay [4], less than 4.30.

For the compound `Cc1ccc(/C=C/[C@]2(C)CC[C@@](C)(/C=C/C3=C[C@H](O)[C@](C)(O)C[C@@H]3O)O2)cc1`, the result in assay [1] was inactive. The pIC50 in assay [2] was less than 4.30; in assay [3] it was 4.97; in assay [4], less than 4.30.

For `Cc1ccc(/C=C/[C@@]2(C)CC[C@@](C)(/C=C/C3=C[C@H](O)[C@](C)(O)C[C@@H]3O)O2)cc1`, in assay [1], the outcome was inactive. In addition, the pIC50 in assay [2] was less than 4.30; in assay [3], 4.51; in assay [4] it was less than 4.30.

The record behind these values is ChEMBL document CHEMBL3608228, “Bisacremines A-D, Dimeric Acremines Produced by a Soil-Derived Acremonium persicinum Strain” (J Nat Prod, 2015).
